# Reference: the supplement of paper PMC10307832
# Tests used:
# Assay in all cases: relative viability (nuclei count vs DMSO), 5 days (fraction); higher = more cells survive
# [1] = compound: C1=CC=C2C(=C1)N=C(S2)C(C#N)C3=NC(=NC=C3)NCCC4=CN=CC=C4 + CC(=O)c1c(C)c2cnc(Nc3ccc(N4CCNCC4)cn3)nc2n(C2CCCC2)c1=O [Palbociclib] (partner 0.5 µM)
# Procedure, shortened: (§1)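 Dosing by pin tool came one day after lung cancer cell lines were seeded in 1536-well plates, using either one drug or a fixed anchor-drug dose plus five library-drug doses (not always all listed) in √10 steps. After 5 days, nuclei were counted on 4× images. Relative viability is treated-well nuclei count divided by vehicle-well nuclei count, and values are medians of duplicate plates.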
# [2] = compound: C#Cc1cccc(Nc2ncnc3cc(OC)c(OCCCCCCC(=O)NO)cc23)c1 [CUDC-101] + C[C@@H](Oc1cc(-c2cnn(C3CCNCC3)c2)cnc1N)c1c(Cl)ccc(F)c1Cl [Crizotinib] (partner 1 µM)
# Procedure, shortened: as §1
# [3] = compound: C#Cc1cccc(Nc2ncnc3cc(OC)c(OCCCCCCC(=O)NO)cc23)c1 [CUDC-101] + C[C@]1(O)C[C@@H](c2nc(-c3ccc4ccc(-c5ccccc5)nc4c3)c3c(N)nccn32)C1 [Linsitinib] (partner 1 µM)
# Procedure, shortened: as §1
# [4] = compound: COc1cc(N2CCC(N3CCN(C)CC3)CC2)ccc1Nc1ncc(Cl)c(Nc2ccccc2S(=O)(=O)C(C)C)n1 [NVP-TAE684] + CS(=O)(=O)CCNCc1ccc(-c2ccc3ncnc(Nc4ccc(OCc5cccc(F)c5)c(Cl)c4)c3c2)o1 [Lapatinib] (partner 2 µM)
# Procedure, shortened: as §1
Cell Line,relative viability ([1]; first compound 0.005 µM),relative viability ([1]; first compound 0.01581 µM),relative viability ([1]; first compound 0.05 µM),relative viability ([1]; first compound 0.1581 µM),relative viability ([1]; first compound 0.5 µM),relative viability ([2]; first compound 0.01 µM),relative viability ([2]; first compound 0.03162 µM),relative viability ([2]; first compound 0.1 µM),relative viability ([2]; first compound 0.3162 µM),relative viability ([2]; first compound 1 µM),relative viability ([3]; first compound 0.01 µM),relative viability ([3]; first compound 0.03162 µM),relative viability ([3]; first compound 0.1 µM),relative viability ([3]; first compound 0.3162 µM),relative viability ([3]; first compound 1 µM),relative viability ([4]; first compound 0.2 µM),relative viability ([4]; first compound 0.6325 µM),relative viability ([4]; first compound 2 µM)
HOP-62,0.412,0.571,0.432,0.471,0.474,0.95,0.753,1.03,0.925,0.666,1.06,0.992,0.842,0.853,0.596,0.882,1,1.08
HCC-78,0.333,0.431,0.506,0.485,0.478,0.365,0.298,0.354,0.301,0.103,0.438,0.387,0.707,0.42,0.27,1.26,1.3,0.255
NCI-H2085,0.428,0.465,0.415,0.472,0.471,0.865,0.861,0.772,0.779,0.682,0.808,0.985,0.914,0.929,0.792,0.788,0.632,0.648
COR-L23,0.236,0.312,0.229,0.281,0.24,0.677,0.674,0.626,0.555,0.295,1.25,0.898,0.956,0.736,0.252,0.661,0.898,0.538
HARA,0.298,0.235,0.229,0.257,0.365,0.904,0.866,0.89,0.799,0.395,1.01,0.804,0.908,0.512,0.349,1.09,0.626,0.232
201T,0.292,0.354,0.354,0.383,0.325,1,1.02,0.979,1.06,0.97,1.05,0.93,0.978,1.05,0.781,1.09,1.05,0.928
EMC-BAC-2,0.461,0.533,0.487,0.555,0.486,0.726,0.76,0.732,0.571,0.388,0.845,0.867,0.852,0.765,0.634,0.856,0.805,0.586
